Source: ChEMBL document CHEMBL1201862, “PubChem BioAssay data set” (2004)
Activity calls are given as the source filed them.

How the values were obtained:
[1] = biological target: Peroxisome proliferator-activated receptor gamma/Nuclear receptor coactivator 1 (Homo sapiens, UniProt P37231); format: functional;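 further: agonist potency as compounds enhance coactivator SRC-1 recruitment to PPARgamma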
[2] = biological target: Peroxisome proliferator-activated receptor gamma/Nuclear receptor coactivator 3 (Homo sapiens, UniProt P37231); format: functional;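 further: agonist potency for raising coactivator recruitment to the receptor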
[3] = biological target: Peroxisome proliferator-activated receptor gamma/Nuclear receptor coactivator 2 (Homo sapiens, UniProt P37231); format: functional;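 further: agonist potency for raising coactivator recruitment to the receptor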
[4] = viability of HCT116 lacking mutant beta-catenin – cell-based, human colon tumor, dose response (AID 1045); format: functional;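 further: HCT116 colon tumor cells with beta catenin knocked out; cells exposed to compound for 60 hours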
[5] = viability of PTEN-deleted HCT116 cells – cell-based, HCT116 PTEN knockout, dose response (AID 1047); format: functional;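 further: HCT116 colon tumor cells with PTEN knocked out; cells exposed to compound for 60 hours before readout; potency for loss of cell viability measured by luminescence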
[6] = microbe, parasite or virus in culture; format: functional; conditions: Mycobacterium tuberculosis
[7] = biological target: Heat shock protein HSP 90-alpha (Homo sapiens, UniProt P07900); format: functional, organism-based
[8] = biological target: T1, Heat shock factor protein 1 (Mus musculus, UniProt P38532); assay: decrease of HSF1-responsive luciferase luminescence – cell-based, NIH3T3, dose retest, confirmation (AID 2382); format: functional;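 further: NIH3T3 fibroblasts with HSF1-driven luciferase reporter stressed by proteasome inhibitor MG132; luminescence from HSF1-driven luciferase expression after 8 hours of MG132 stress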
T1 sequence (P38532 whole entry): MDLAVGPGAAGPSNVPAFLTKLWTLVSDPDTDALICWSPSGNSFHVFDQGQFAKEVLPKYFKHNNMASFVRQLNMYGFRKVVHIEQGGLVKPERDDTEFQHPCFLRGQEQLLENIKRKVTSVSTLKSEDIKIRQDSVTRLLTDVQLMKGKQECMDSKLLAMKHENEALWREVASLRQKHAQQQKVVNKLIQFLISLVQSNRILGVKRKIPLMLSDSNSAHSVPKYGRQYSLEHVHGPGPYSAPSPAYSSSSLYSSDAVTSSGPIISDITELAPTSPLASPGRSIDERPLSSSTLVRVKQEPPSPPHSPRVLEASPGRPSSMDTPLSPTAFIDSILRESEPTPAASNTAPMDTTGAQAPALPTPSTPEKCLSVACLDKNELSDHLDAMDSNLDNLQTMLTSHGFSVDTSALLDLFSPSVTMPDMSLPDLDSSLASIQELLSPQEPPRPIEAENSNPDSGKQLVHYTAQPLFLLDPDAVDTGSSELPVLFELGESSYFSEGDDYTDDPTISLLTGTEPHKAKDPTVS

[9] = biological target: Glyceraldehyde-3-phosphate dehydrogenase (Homo sapiens, UniProt P04406)
[10] = biological target: T2, Alkaline phosphatase, tissue-nonspecific isozyme (Homo sapiens, UniProt P05186); assay: potency against alkaline phosphatase TNAP – biochemical, luminescent, dose response, SAR follow-up (AID 1056)
T2 sequence (P05186 whole entry): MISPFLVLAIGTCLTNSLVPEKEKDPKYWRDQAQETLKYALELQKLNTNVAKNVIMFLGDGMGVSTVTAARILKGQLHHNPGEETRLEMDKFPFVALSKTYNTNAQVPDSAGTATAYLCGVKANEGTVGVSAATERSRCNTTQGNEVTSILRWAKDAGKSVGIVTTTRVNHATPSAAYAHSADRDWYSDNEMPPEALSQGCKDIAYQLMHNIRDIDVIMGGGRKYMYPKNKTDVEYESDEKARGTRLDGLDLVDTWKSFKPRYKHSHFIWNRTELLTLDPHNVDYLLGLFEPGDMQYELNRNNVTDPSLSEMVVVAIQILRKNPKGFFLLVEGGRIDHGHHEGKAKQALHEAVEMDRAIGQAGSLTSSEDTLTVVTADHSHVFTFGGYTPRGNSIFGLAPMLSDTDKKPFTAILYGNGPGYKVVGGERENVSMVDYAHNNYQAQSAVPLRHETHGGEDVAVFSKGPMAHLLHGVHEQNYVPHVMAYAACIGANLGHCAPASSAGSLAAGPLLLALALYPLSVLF

Protein RecA = biological target: T3, Protein RecA (Mycobacterium tuberculosis, UniProt P9WHJ3); assay: Fluorescence Cell-Free Homogeneous Dose Retest to Identify Inhibitors of RecA-Intein Splicing Activity. [Related pubchem assays (depositor defined):AID2097, AID2223, AID489010, AID492950]; format: functional
T3 sequence (P9WHJ3 whole entry): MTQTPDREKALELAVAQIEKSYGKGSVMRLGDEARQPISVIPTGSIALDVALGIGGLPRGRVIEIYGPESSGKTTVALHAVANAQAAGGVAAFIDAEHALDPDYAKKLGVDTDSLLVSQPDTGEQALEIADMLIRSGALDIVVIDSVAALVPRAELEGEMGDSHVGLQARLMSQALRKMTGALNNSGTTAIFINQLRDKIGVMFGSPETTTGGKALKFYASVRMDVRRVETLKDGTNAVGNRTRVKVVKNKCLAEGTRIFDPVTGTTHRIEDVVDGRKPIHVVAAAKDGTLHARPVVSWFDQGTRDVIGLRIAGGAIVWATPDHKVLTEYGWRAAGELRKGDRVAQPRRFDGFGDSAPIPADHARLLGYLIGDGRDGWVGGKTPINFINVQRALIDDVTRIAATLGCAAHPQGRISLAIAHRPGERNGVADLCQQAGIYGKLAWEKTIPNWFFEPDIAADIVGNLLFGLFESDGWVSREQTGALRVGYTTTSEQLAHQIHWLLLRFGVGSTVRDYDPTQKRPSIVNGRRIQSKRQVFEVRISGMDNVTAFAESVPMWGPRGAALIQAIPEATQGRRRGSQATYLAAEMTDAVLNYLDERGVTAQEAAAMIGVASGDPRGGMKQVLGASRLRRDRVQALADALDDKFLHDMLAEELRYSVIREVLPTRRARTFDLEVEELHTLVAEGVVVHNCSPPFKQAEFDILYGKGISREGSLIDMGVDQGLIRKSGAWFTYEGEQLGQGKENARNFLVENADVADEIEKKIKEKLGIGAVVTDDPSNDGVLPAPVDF

[11] = biological target: T4, Replicative DNA helicase DnaB (Mycobacterium tuberculosis, UniProt P9WMR3); assay: DnaB intein splicing inhibitors, dose response, biochemical, cell-free fluorescence (AID 449749); format: functional
T4 sequence (P9WMR3 whole entry): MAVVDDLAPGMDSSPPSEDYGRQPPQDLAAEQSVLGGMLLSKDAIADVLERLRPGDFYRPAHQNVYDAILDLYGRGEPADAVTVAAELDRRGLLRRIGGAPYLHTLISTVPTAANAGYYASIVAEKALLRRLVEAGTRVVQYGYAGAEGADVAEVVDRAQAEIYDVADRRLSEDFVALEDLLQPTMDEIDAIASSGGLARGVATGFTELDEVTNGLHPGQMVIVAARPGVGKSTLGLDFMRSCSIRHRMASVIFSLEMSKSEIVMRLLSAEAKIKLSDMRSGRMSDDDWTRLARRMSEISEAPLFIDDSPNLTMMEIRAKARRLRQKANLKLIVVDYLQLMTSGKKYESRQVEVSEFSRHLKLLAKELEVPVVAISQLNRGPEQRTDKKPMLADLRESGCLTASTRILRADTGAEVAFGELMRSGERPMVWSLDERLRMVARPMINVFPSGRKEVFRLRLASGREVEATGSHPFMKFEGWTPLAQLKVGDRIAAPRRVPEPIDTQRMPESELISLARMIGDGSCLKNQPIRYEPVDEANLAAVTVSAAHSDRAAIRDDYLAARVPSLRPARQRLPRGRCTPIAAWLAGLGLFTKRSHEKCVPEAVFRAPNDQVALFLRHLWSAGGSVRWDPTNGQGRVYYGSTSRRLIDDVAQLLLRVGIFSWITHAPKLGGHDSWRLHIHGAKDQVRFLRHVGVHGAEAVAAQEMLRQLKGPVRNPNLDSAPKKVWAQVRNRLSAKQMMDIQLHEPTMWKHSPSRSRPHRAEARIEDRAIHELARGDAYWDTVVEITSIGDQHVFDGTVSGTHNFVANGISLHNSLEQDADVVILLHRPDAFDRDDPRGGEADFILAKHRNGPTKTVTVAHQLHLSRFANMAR

[12] = biological target: T5, Histone-lysine N-methyltransferase NSD2 (Homo sapiens, UniProt O96028); format: biochemical
T5 sequence (O96028 whole entry): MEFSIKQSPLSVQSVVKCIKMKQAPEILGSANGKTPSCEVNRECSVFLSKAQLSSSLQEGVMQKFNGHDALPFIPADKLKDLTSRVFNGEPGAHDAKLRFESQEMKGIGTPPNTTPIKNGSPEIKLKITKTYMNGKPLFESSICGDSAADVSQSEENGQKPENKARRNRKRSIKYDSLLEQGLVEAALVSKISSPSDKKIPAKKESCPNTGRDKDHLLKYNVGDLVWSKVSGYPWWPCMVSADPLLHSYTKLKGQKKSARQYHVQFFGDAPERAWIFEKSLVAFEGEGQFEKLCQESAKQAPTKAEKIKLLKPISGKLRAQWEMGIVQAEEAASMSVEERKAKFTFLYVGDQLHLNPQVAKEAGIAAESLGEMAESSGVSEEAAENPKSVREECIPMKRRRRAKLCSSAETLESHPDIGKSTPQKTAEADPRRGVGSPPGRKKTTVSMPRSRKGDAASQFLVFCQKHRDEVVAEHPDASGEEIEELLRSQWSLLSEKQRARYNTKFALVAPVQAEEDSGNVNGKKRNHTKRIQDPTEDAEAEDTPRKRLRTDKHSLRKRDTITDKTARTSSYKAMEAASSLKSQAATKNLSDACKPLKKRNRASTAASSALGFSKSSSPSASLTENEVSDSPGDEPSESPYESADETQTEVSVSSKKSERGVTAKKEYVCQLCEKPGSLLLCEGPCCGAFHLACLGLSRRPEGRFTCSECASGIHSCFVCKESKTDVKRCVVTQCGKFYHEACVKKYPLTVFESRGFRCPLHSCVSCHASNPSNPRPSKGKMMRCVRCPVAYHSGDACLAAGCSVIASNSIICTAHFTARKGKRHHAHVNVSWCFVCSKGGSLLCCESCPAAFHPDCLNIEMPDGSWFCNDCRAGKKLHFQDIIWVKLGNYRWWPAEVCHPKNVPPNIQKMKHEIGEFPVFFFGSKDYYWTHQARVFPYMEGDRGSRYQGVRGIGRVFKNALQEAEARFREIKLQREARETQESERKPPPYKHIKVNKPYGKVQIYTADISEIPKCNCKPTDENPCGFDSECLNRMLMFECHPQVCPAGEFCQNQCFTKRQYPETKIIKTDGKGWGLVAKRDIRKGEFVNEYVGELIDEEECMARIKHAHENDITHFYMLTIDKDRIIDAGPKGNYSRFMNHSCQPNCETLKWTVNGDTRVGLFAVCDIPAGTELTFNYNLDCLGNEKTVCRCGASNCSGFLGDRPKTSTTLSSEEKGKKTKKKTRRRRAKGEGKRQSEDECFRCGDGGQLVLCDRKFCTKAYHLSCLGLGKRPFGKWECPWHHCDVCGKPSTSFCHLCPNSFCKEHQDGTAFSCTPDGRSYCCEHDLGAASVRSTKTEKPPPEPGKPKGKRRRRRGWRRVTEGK

Fatty acid synthase = Fatty acid synthase (Homo sapiens, UniProt P49327); assay: inhibition of human FAS-TE enzyme activity – biochemical, kinetic fluorescence intensity, dose response (AID 624326); format: functional;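 further: rate of fluorescence rise from hydrolysis of a fluorogenic O-methyl fluorescein ester substrate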
[13] = viability of uninfected HEp-2 cells – cell-based, HTS, cytotoxicity control for RSV inhibitor project, dose response (AID 2410); format: functional; conditions: human respiratory syncytial virus

Chain of Peroxisome proliferator-activated receptor gamma/Nuclear receptor coactivator 3 (P37231 whole entry): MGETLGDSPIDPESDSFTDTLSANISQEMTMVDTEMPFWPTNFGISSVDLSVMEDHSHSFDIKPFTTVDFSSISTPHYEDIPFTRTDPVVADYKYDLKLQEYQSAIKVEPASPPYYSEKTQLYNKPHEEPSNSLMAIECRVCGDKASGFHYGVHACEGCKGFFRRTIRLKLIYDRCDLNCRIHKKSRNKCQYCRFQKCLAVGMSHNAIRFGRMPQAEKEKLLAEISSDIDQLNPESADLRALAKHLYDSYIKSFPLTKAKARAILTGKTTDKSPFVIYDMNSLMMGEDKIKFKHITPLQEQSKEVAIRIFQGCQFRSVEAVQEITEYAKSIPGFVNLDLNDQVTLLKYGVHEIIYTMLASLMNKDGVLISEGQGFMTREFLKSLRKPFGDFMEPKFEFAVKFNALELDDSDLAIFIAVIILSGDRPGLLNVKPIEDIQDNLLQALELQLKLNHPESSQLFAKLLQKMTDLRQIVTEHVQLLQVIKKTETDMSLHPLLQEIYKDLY
Chain of Peroxisome proliferator-activated receptor gamma/Nuclear receptor coactivator 3 (Q9Y6Q9 whole entry, further chain): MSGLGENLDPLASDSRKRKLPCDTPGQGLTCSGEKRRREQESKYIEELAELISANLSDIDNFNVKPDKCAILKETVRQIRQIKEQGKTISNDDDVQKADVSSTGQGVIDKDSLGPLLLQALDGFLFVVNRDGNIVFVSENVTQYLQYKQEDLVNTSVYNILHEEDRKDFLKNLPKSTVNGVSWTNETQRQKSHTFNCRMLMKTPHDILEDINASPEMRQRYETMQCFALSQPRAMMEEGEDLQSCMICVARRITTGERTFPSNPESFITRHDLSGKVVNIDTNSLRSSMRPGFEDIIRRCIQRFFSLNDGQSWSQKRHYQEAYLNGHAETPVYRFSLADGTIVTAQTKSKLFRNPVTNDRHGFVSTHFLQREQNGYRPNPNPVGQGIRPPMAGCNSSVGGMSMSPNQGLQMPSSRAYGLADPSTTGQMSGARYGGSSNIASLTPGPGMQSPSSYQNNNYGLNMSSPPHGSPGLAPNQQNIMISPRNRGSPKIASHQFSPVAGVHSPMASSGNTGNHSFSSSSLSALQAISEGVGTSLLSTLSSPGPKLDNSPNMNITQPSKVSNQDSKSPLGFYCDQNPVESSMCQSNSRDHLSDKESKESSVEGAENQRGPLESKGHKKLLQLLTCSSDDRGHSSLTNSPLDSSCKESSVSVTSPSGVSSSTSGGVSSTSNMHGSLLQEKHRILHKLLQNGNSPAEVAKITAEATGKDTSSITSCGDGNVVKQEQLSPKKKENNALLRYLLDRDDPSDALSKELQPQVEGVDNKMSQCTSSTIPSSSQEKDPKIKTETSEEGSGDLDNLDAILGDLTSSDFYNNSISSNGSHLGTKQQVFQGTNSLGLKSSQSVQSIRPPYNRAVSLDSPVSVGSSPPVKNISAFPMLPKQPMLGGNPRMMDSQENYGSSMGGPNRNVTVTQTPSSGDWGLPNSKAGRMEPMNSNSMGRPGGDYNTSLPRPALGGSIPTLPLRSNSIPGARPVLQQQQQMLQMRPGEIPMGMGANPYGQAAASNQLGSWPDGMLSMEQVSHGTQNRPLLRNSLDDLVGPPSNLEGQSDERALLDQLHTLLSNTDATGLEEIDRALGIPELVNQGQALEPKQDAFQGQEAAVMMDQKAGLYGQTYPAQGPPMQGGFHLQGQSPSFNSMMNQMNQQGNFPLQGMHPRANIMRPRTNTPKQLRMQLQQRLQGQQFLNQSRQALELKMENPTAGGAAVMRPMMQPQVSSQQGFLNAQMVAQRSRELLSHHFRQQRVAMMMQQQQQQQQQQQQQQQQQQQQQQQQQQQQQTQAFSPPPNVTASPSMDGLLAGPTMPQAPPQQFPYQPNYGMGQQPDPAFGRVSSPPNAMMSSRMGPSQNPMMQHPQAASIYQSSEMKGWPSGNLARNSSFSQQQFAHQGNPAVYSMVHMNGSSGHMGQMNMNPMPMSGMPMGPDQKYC
Chain of Peroxisome proliferator-activated receptor gamma/Nuclear receptor coactivator 1 (P37231 whole entry): as the sequence (P37231 whole entry) above
Chain of Peroxisome proliferator-activated receptor gamma/Nuclear receptor coactivator 1 (Q15788 whole entry, further chain): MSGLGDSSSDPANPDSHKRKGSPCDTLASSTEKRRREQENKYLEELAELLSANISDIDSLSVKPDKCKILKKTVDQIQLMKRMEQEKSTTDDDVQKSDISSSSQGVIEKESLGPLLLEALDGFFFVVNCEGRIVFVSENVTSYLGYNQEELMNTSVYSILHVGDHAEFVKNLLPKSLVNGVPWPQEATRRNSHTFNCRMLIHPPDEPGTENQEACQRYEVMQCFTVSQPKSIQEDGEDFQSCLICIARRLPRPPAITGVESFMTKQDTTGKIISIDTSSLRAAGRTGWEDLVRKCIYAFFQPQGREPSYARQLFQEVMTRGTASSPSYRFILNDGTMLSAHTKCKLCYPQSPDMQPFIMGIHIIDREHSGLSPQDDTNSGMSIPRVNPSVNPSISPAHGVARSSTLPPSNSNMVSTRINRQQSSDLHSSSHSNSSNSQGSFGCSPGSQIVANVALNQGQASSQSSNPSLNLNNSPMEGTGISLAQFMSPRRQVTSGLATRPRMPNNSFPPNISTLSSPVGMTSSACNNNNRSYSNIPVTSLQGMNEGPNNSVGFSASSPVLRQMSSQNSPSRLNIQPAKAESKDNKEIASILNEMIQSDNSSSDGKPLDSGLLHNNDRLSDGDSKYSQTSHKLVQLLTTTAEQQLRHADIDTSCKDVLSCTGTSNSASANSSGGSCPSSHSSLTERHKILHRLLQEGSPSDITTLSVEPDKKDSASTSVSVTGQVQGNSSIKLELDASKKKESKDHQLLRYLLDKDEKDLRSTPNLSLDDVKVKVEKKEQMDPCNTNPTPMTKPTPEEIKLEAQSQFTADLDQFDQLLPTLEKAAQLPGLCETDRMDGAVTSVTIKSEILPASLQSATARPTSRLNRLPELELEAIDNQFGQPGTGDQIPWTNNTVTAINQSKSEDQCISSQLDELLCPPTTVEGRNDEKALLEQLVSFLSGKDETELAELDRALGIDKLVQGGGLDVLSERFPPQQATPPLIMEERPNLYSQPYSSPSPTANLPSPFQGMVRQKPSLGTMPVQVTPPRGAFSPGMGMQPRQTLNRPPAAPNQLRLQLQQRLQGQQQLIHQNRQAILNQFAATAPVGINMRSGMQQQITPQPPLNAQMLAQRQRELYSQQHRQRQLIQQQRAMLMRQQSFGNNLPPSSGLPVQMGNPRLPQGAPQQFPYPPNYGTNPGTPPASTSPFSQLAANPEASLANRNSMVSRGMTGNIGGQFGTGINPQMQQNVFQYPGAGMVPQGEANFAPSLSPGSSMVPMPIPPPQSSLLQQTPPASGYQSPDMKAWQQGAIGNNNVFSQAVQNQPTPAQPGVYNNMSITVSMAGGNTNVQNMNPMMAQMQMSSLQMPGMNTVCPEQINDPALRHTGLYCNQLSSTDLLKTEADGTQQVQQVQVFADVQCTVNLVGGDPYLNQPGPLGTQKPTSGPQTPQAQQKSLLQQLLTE
Chain of Glyceraldehyde-3-phosphate dehydrogenase (P04406 whole entry): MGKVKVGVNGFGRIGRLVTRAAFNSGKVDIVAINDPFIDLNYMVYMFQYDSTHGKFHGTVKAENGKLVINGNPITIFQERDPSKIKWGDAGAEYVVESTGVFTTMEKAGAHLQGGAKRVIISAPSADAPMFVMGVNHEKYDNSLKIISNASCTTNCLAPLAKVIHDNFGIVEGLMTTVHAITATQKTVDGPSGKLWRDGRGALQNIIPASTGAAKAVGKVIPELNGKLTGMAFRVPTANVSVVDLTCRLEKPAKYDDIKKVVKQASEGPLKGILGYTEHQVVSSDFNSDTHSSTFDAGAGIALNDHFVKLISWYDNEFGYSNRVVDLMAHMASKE

CC(C)(C)NC(=O)CSc1nc(O)cc(=O)n1-c1ccccc1F
EC50 [1]: > 79.4 µM (not active) | EC50 [2]: > 79.4 µM (not active) | EC50 [3]: > 79.4 µM (not active)

O=C(c1cccc(C(F)(F)F)c1)N1CCN(c2cc(O)nnc2-c2ccccc2)CC1
EC50 [1]: > 79.4 µM (not active) | EC50 [2]: > 79.4 µM (not active) | EC50 [3]: > 79.4 µM (not active)

COc1ccc(-c2noc(Cc3ccccc3OC)n2)cc1
EC50 [1]: > 79.4 µM (not active) | EC50 [2]: > 79.4 µM (not active) | EC50 [3]: > 79.4 µM (not active)

Cc1ccccc1N=C(S)NC(NC(=O)COc1ccccc1)C(Cl)(Cl)Cl (configuration not stated)
EC50 [4]: 31 µM (active) | EC50 [5]: 27.2 µM (active)

O=C(c1ccc(-c2ccccc2)c(F)c1)C1CCCN(C(=O)c2cncs2)C1 (configuration not stated)
CC50 [6]: 32.9 µM (active) | AC50 [7]: 7.61 µM (active) | EC50 [8]: > 195 µM (not active)

Cc1cc(N2CCN(c3cccc(C)c3C)CC2)nc(-c2ccccc2)n1
AC50 [7]: 1.66 µM (active)

Cc1nn(-c2ccccc2)c2sc(C(=O)NNC(=O)COc3cccc4ccccc34)cc12
EC50 [4]: 19.3 µM (active) | EC50 [5]: 19.2 µM (active)

CNC(=O)c1n[nH]c2c1COc1ccccc1-2
IC50 [9]: > 100 µM (not active) | IC50 [10]: > 100 µM (inactive)

CCOC(=O)c1[nH]c(CSc2nnc(-c3ccc(OC)cc3)o2)c(C(=O)OCC)c1C
EC50 [4]: 21.6 µM (active) | EC50 [5]: 20.8 µM (active)

CC(C)(C)c1ccc(-c2nnc3sc(-c4ccncc4)nn23)cc1
EC50 [1]: > 79.4 µM (not active) | EC50 [2]: > 79.4 µM (not active) | EC50 [3]: > 79.4 µM (not active)

COc1ccc(-c2nnc(Sc3nc4ccccc4o3)c3ccccc23)cc1
EC50 (Protein RecA): 0.703 µM (active) | EC50 [4]: 16.2 µM (active) | AC50 [11]: 3.8 µM (active) | EC50 [5]: 18.3 µM (active)

COC(=O)Nc1ccc2c(c1)N(C(=O)CCN(C)C)c1ccccc1CC2
AC50 [12]: > 20 µM (inactive)

CC1(C(=O)NS(=O)(=O)c2ccc(C#N)cc2)CCN1C(=O)c1ccc(C2CCCCC2)cc1 (configuration not stated)
IC50 (Fatty acid synthase): 5.24 µM (active)

NCc1cc(-c2cccnc2)no1
IC50 [9]: > 100 µM (not active) | IC50 [10]: > 100 µM (inactive)

c1cncc(-c2cc[nH]n2)c1
IC50 [9]: > 100 µM (not active) | IC50 [10]: > 100 µM (inactive)

CCOCCCNC1=C(Cl)C(=O)c2ccccc2C1=O
AC50 [7]: 10.6 µM (active) | AC50 [12]: 12.3 µM (active)

C#CCn1/c(=N/C(=O)c2ccc(Cl)s2)sc2cccc(OC)c21
EC50 [1]: 18.4 µM (not active) | CC50 [13]: 19.1 µM (active) | EC50 [2]: 21.5 µM (not active) | EC50 [3]: 12.8 µM (not active)

O=S(=O)(c1ccc2ccccc2c1)n1ccc2ccccc21
IC50 [9]: > 100 µM (not active) | IC50 [10]: > 100 µM (inactive)
